Like-named read-outs stand apart in the source and are kept apart here.
Legend:
[1] = system: Aβ42 production by human neuroblastoma SH-SY5Y cells; test: Aβ42 production by SH-SY5Y cells, sandwich ELISA of conditioned medium; conditions: for activity in reducing the production of Aβ42 (in words): cell-based assay
Procedure: We used the human Neuroblastoma SH-SY5Y cells for drug testing as a model for Aβ42 production. The cells were cultured in Dulbecco's modified Eagle's medium or Dulbecco's modified Eagle's medium/Ham's F-12 medium supplemented with 10% fetal bovine serum, 100 units/ml penicillin, and 100 μg/ml streptomycin in a humidified atmosphere of 95% air, 5% CO2 at 37° C. as per suppliers instructions. […] Cell toxicity was monitored using the MTT assay and all data reported are corrected for any cell loss.
Sandwich Enzyme-Linked Immunosorbent Assay (sELISA) for Quantization of Aβ42:
The capture antibody, detection antibody and secondary antibody as well as standard purified preparations of Aβ42 were obtained from Sigma-Aldrich. Cells were cultured for 24 h in the presence or absence of compounds and the conditioned medium was subjected to sELISA.

[2] = system: human APP overexpressing Drosophila; test: Survival of human APP overexpressing Drosophila transgenic model; type: in vivo, Drosophila melanogaster; conditions: 100 mg/kg body weight/day with the food
Procedure: The effect of cocrystal of niacin-eugenol/eugenol was tested in a Drosophila model which over expresses the human APP protein. The creation of the APP over expressing flies and other methods for these studies are as described previously by Greeve et al (See J. Neuroscience, 2004, 24:3899-3906). The targeted over/ectopic expression of APP in the brain using UAS promoter driven APP transgene, induced by a specific GAL4 trans-driver in the Drosophila model system was used. Adult flies, a total of 80 flies (4 males and 4 females per tube, 10 tubes) were fed right after their emergence and the survival was examined until the end of 9th day. The drugs to be tested were delivered with the food.

[3] = In vivo pharmacokinetics (plasma and brain niacin and eugenol by HPLC); parameters: species or system male Swiss Albino mice; conditions: male, Swiss Albino, mouse
Procedure: In vivo pharmacokinetic (PK) studies were conducted in male Swiss Albino mice. Niacin-Eugenol physical mixture or Niacin-Eugenol hybrid cocrystal was administered to the animals at a dose of 0.73 mmol/kg orally (n=2 mice per time point). […] Plasma was separated by centrifugation at 4000 rpm for 10 minutes and stored in ice for analysis. Animals were sacrificed at the above time points; and brains were excised, snap frozen in liquid nitrogen and stored at −80° C. Samples were analyzed by high-performance liquid chromatography (HPLC) with UV detection. […] The precipitated proteins were removed by centrifugation at 15000 rpm at 5° C. for 10 min. The supernatant was collected in HPLC vials and kept at 4° C. for analysis. 200 mg of the brain tissue was homogenized in Acetonitrile. The resultant homogenate was centrifuged at 15000 rpm for 10 minutes at 4° C. […] Pharmacokinetic parameters were calculated using WinNonLin v5.2 software. The plasma and brain samples were analyzed for Niacin and Eugenol concentrations using HPLC under the conditions shown below: […]

[4] = Homo sapiens, SH-SY5Y, read-out: IC50 (μM) in cell based abeta assay

## CCCc1ccc(OC(=O)c2cccnc2)c(OC)c1 [Niacin-dihydro eugenol hybrid]
[1]; read-out: IC50 (μM) in cell based abeta assay, blocking Aβ42 secretion
  IC50: > 50 µM

## Oc1ccc(C=Cc2cc(O)cc(O)c2)cc1 [resveratrol]
[2]; early time points
  effect on survival compared to untreated flies: modest effect
[2]; end of 9th day (FIG. 7)
  effect on number of surviving flies compared to untreated flies: no statistically different effect

## COc1cc(/C=C/C(=O)O)ccc1OC(=O)c1cccnc1 [Niacin-ferulic acid hybrid]
[1]; [4]
  IC50: > 50 µM

## COc1cc(C(C)=O)ccc1OC(=O)c1cccnc1 [Niacin-apocynin hybrid]
[1]; [4]
  IC50: 25.3 µM

## COc1cc(CC2CO2)ccc1OC(=O)c1cccnc1 (stereo not drawn) [Niacin-eugenol epoxide hybrid]
[1]; [4]
  IC50: 17.5 µM

## O=C(O)c1cccnc1 [niacin, pyridine-3-carboxylic acid]
[1]; 5 μM cinnamic acid versus niacin alone
  reduction of niacin IC50 in the presence of cinnamic acid: about 15%
[1]; 5 μM curcumin versus niacin alone
  reduction of niacin IC50 in the presence of curcumin: about 27%
[1]; 5 μM eugenol versus niacin alone
  reduction of niacin IC50 in the presence of eugenol: about 45%
[1]; 5 μM meclofenamic acid versus niacin alone
  reduction of niacin IC50 in the presence of meclofenamic acid: about 33%
[1]; 5 and 10 μM niacin
  inhibitory effect of niacin on Aβ42 levels in the media: good effect
[1]; 25 and 50 μM niacin
  inhibition of Aβ42 levels in the media: 100%
[1]; Homo sapiens, SH-SY5Y, read-out: IC50 of niacin in the presence of cinnamic acid, in the presence of 5 μM of cinnamic acid
  IC50: 9.8 µM
[1]; Homo sapiens, SH-SY5Y, read-out: IC50 of niacin in the presence of curcumin, in the presence of 5 μM of curcumin
  IC50: 7.5 µM
[1]; Homo sapiens, SH-SY5Y, read-out: IC50 of niacin in the presence of eugenol, in the presence of 5 μM of eugenol
  IC50: 5.9 µM
[1]; Homo sapiens, SH-SY5Y, read-out: IC50 of niacin in the presence of meclofenamic acid, in the presence of 5 μM of meclofenamic acid
  IC50: 7 µM
[1]; Homo sapiens, SH-SY5Y, read-out: IC50 of niacin's inhibitory effect on Aβ42 production, niacin alone, SH-SY5Y cells, overnight incubation
  IC50: 10.6 µM
[1]; read-out: IC50 of niacin's inhibitory effect on Aβ42 production, niacin alone, SH-SY5Y cells, overnight incubation
  IC50: ~10.2 µM

## C=CCc1ccc(OC(=O)c2cccnc2)c(OC)c1 [Niacin-eugenol hybrid, Nicotinic acid 4-allyl-2-methoxy-phenyl ester]
[3]
  increase in Tmax for eugenol compared to physical mixture: 4 fold
[1]; [4]
  IC50: 14 µM
[1]
  activity in reducing the production of Aβ42 (in words): most active among the series
[1]; listed as niacin-eugenol ester linked hybrid
  activity in reducing the production of Aβ42 (in words): most potent

## COc1cc(C=O)ccc1OC(=O)c1cccnc1 [Niacin-vanillin hybrid, Nicotinic acid 4-formyl-2-methoxy-phenyl ester]
[1]; [4]
  IC50: 44.6 µM

## COc1ccc(/C=C\C(=O)O)cc1OC(=O)c1cccnc1 [Niacin-isofreulic acid hybrid]
[1]; [4]
  IC50: 36.8 µM

Reference: patent US20130338199A1, “Novel Niacin Compositions for Reduction of Amyloid Beta Peptide 42 (AB42) Production and for Treatment of Alzheimer's Disease” (priority 2008, published 2013)
